Read-outs that look alike come from different tables or passages of the source.
Assays:
in vitro = settings: human
Source text: (§1) The infectious cell culture system for HCV (HCVcc) is based on a unique full length strain of genotype 2a derived from a patient with fulminant hepatitis (JFH-1). HCVcc allows the complete virus life cycle to be studied in cell culture. A chimeric strain of JFH-1, termed Jc1JFH, is capable of more robust growth in tissue culture and can be engineered to encode a reporter gene. The activity of compounds such as nilotinib against HCVcc can be investigated using a Jc1JFH reporter virus encoding luciferase (Table 1). Naïve Huh-7.5 cells are treated with serially diluted compounds in DMSO for 2 h prior to infection with HCVcc. […] Both EC50 and CC50 values are normalized to cells treated with DMSO alone.

HCVcc [1] = assay: microbe, parasite or virus in culture; settings: for EC50: Hepatitis C virus
Source text: as §1

HCVrep = assay: HCV replicon (HCVrep) luciferase assay, JFH-1-based replicon cell line; parameters: species or system Hepatitis C virus (HCV)
Source text: (§2) HCVrep comprises a stable cell line harboring a sub-genomic replicon encoding a selectable marker (e.g., neomycin phosphotransferase), a reporter gene (e.g., luciferase) and the minimal HCV replicase proteins, NS3 to NS5B. Since the subgenomic replicon is non-infectious, the HCVrep system is used to study viral RNA replication independently of other stages of the life cycle, including virus entry/assembly/release. […] To determine the effects of compounds such as nilotinib on HCV RNA replication, a stable JFH-1-based replicon cell line encoding luciferase was established.

HCVcc [2] = assay: Time of addition experiment with HCVcc (FIG. 1); type: cell-based, Hepatitis C virus (HCV); settings: treatment 1 (compound during first 4 h of infection) vs treatment 2 (added 4 h post-infection); luciferase at 72 h
Procedure: FIG. 1. The effect of agents added before or after entry of HCV into cells. The presence of compound during both binding and post-binding are indicated by black bars; white bars indicate compounds present only at post-binding. DMSO, dimethyl sulfoxide; 5Ainh, HCV NS5A inhibitor (50×EC50); nilotinib (50×EC50); α-CD81, anti-CD81 antibody (1 μg/mL); α-IgG, iso-type control antibody (1 μg/mL).
To further explore the MOA of compounds such as nilotinib, a time of addition experiment is performed to determine whether the compound acted at an early (i.e., entry) or late (i.e., assembly/release) stage of the virus life cycle. Naive Huh7.5 cells are infected for 4 h with HCVcc in either the presence (treatment 1) or absence (treatment 2) of compound. At 4 h post-infection, compound is then added to the treatment 2 cells. At 72 h post infection, luciferase activity is determined. An inhibitor of viral entry (antibody targeting CD81) and an HCV replication inhibitor (5Ainh) are used as comparators.

[3] = Cytotoxicity in HCVrep cell line
Source text: as §1, §2

HCV entry = type: cell-based, Hepatitis C virus (HCV); settings: binding 1.5 h at 4° C., shift to 37° C., compound added at 20 min intervals up to 2 h; luciferase after 48 h
Procedure: The effect of agents added during entry of HCV into cells-. HCV kinetic entry assay in the presence of compounds.
In this assay, infection is synchronized by incubation of cells and virus together for 1.5 h at 4° C. to allow binding, but not subsequent entry steps. After synchronization, unbound virus is removed by washing, and cells are shifted to 37° C. to initiate post-binding events. Compounds are added either immediately prior to (time zero), or at 20 min intervals post-temperature shift for up to 2 h. Compounds are removed at 4 h post-addition and luciferase activity is measured after 48 h of infection. Controls are included, which are known to block various steps of the HCV entry process: heparin sulfate (virus binding), anti-CD81 antibody (early post-virus binding), concanamycin A (ConA; late post-virus binding), bafilomycin (Baf; late post-virus binding), gefitinib (Gef; late post-virus binding). Percent inhibition is determined relative to treatment with compounds during synchronized virus binding at 4° C. Representative data of percent inhibition versus time of addition (FIG. 2) is used to estimate half-maximal times (t1/2) to inhibit HCV entry.

[4] = Table 2, ratio of cytotoxicity to antiviral potency

Molecule	CC50 (in vitro) [µM]	EC50 (HCVcc [1]; Huh7.5) [µM]	also measured
Cc1nc(Nc2ncc(C(=O)Nc3c(C)cccc3Cl)s2)cc(N2CCN(CCO)CC2)n1 [Dasatinib, dasatinib]	18.7	1.48	CC50/EC50 (HCVcc [1]): 12.65
C#Cc1cccc(Nc2ncnc3cc(OCCOC)c(OCCOC)cc23)c1 [Erlotinib, erlotinib]	> 25	0.47	–
COc1cc2ncnc(Nc3ccc(F)c(Cl)c3)c2cc1OCCCN1CCOCC1 [Gefitinib, gefitinib]	10.6	–	–
Cc1ccc(NC(=O)c2ccc(CN3CCN(C)CC3)cc2)cc1Nc1nccc(-c2cccnc2)n1 [Imatinib, imatinib]	–	–	activity against the replicon (HCVrep; at the concentrations tested): did not show activity at the concentrations tested
Cc1ccc(NC(=O)c2ccc(CN3CCN(C)CC3)cc2)cc1Nc1nc(-c2cccnc2)cs1 [Masitinib, masitinib]	6.27	0.77	CC50/EC50 (HCVcc [1]; [4]): 14.58
Cc1cn(-c2cc(NC(=O)c3ccc(C)c(Nc4nccc(-c5cccnc5)n4)c3)cc(C(F)(F)F)c2)cn1 [Nilotinib, nilotinib]	8.77	0.04	potency when added during versus after HCV entry (HCVcc [2]): significantly more potent when added during the first 4 h of infection; CC50 at 72 h [3]: 8.2 µM; CC50 (in vitro; HCVcc (CC50, μM), uninfected compound-treated cells, CellTiter Glo): 8.8 µM; CC50/EC50 (HCVcc [1]): 219.25; EC50 (HCVcc [1]; Huh7.5, read-out: HCVcc (EC50, μM)): 0.04 µM; EC50 (HCVrep; Hepatitis C virus, JFH-1-based replicon cell line, 72 h treatment): 4.2 µM
Cc1ccc(C(=O)Nc2ccc(CN3CCN(C)CC3)c(C(F)(F)F)c2)cc1C#Cc1cnc2cccnn12 [Ponatinib, ponatinib]	–	0.05	–
CNC(=O)c1cc(Oc2ccc(NC(=O)Nc3ccc(Cl)c(C(F)(F)F)c3)c(F)c2)ccn1 [Regorafenib, regorafenib]	> 2.5	0.33	–
Cc1cn(-c2cc(NC(=O)c3ccc(C)c(Nc4nccc(-c5cnccn5)n4)c3)cc(C(F)(F)F)c2)cn1 [Rodotinib, radotinib]	> 2.5	0.04	–
CNC(=O)c1cc(Oc2ccc(NC(=O)Nc3ccc(Cl)c(C(F)(F)F)c3)cc2)ccn1 [Sorafenib, sorafenib]	5.75	0.47	CC50/EC50 (HCVcc [1]; [4]): 12.23
CCN(CC)CCNC(=O)c1c(C)[nH]c(/C=C2\C(=O)Nc3ccc(F)cc32)c1C [Sunitinib, sunitinib]	3.54	0.94	CC50/EC50 (HCVcc [1]; [4]): 3.77
heparin sulfate	–	–	inhibition kinetics of HCV entry versus time of addition (t1/2) (HCV entry): effectively blocks infection only when present during virus binding

From patent US20140127157A1, “ANTIVIRAL ACTIVITY OF TYROSINE KINASE INHIBITORS AGAINST HEPATITUS C VIRUS” (priority 2012, published 2014)
